Our source for the EC50 values is US8765730B2 (Hoffmann-La Roche Inc, priority 2010, dated 2014).

Molecules are shown by their SMILES. pEC50: −log10 of the molar value.

The target in the assay is T1, human GPBAR1 receptor (Homo sapiens, UniProt Q8TDU6).
T1 construct: expressed in transfected cells
T1 sequence (Q8TDU6 1-330): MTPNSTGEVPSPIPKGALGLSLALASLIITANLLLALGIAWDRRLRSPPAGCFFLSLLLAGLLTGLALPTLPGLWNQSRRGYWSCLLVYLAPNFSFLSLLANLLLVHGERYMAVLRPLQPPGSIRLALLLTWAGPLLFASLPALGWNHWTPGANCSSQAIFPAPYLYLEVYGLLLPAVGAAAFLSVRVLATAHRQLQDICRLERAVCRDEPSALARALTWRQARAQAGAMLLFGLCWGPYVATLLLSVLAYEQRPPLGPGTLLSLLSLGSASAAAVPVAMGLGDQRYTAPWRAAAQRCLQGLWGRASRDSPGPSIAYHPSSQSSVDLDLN
The assay can be described thus: functional cAMP assay in CHO-dhfr(minus) cells expressing human GPBAR1 receptors. Type of assay: cell-based. The settings on record: human EC50, functional cAMP assay, 30 min at 30° C. Summed up:
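Agonist cAMP read-out: stable GPBAR1 CHO-dhfr− clone, 30 min compound exposure at 30° C following 30 min IBMX (1 mM) preincubation in Krebs Ringer bicarbonate. Time-resolved energy-transfer detection gives EC50; parental CHO cells serve as counter-screen.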
Background: Changes in cAMP serve as a functional read-out for many G protein-coupled receptors.
For `Cc1cc(/C(C[C@H](c2ccc(N3CCCC3=O)cc2)c2ccccc2C)=N/O)ccn1` [Example 299, 1-{4-[(R)-3-[(E)-Hydroxyimino]-3-(2-methyl-pyridin-4-yl)-1-o-tolyl-propyl]-phenyl}-pyrrolidin-2-one], the pEC50 was 7.55.
Consider `Cc1ccccc1[C@H](C/C(=N\O)c1ccc(=O)n(C)c1)c1ccc(C2CCNCC2)cc1` [Example 507, (R,E)-5-(1-(Hydroxyimino)-3-(4-(piperidin-4-yl)phenyl)-3-o-tolylpropyl)-1-methylpyridin-2(1H)-one], for which the pEC50 is 5.63.
Molecule `Cn1cc(/C(CC(c2ccc(-c3ccc(CC(=O)O)cc3)cc2)c2ccc(Cl)cc2F)=N/O)ccc1=O` (single isomer, unassigned) [Example 461, {4′-[(−)-1-(4-Chloro-2-fluoro-phenyl)-3-[(E)-hydroxyimino]-3-(1-methyl-6-oxo-1,6-dihydro-pyridin-3-yl)-propyl]-biphenyl-4-yl}-acetic acid] gave a pEC50 of 6.81.
The same measure for `COCCc1nnc(-c2ccc([C@@H](C/C(=N\O)c3ccnc(C)c3)c3ccccc3C)cc2)o1` [Example 420, ((−), E)-3-{4-[5-(2-Methoxy-ethyl)[1,3,4]oxadiazol-2-yl]-phenyl}-1-(2-methyl-pyridin-4-yl)-3-o-tolyl-propan-1-one oxime]: 7.82; for `CCOc1ccc([C@H](C/C(=N\O)c2ccnc(C)c2)c2ccc(Cl)cc2C)cc1` [Example 366, (S)-3-(4-Chloro-2-methyl-phenyl)-3-(4-ethoxy-phenyl)-1-(2-methyl-pyridin-4-yl)-propan-1-one oxime]: 6.77; for `Cc1cc(Cl)ccc1C(C/C(=N\O)c1ccc(=O)n(C)c1)c1ccc(S(N)(=O)=O)cc1` (stereo not drawn) [Example 338, (E)-4-(1-(4-chloro-2-methylphenyl)-3-(hydroxyimino)-3-(1-methyl-6-oxo-1,6-dihydropyridin-3-yl)propyl)benzenesulfonamide]: 7.22.
The molecule `CCOC(=O)COc1cccc(-c2ccc(C(C/C(=N\O)c3ccncc3)c3ccccc3)cc2)c1` (stereo not drawn) [Example 28, (4′-{3-[(E)-Hydroxyimino]-1-phenyl-3-pyridin-4-yl-propyl}-biphenyl-3-yloxy)-acetic acid ethyl ester] gave a pEC50 of 6.79.
`Cc1cc(C(CC(c2cccc(-c3cccc(C(=O)O)c3)c2)c2ccccc2C)=NO)ccn1` (racemic) [Example 102, 3′-[3-[Hydroxyimino]-3-(2-methyl-pyridin-4-yl)-1-o-tolyl-propyl]-biphenyl-3-carboxylic acid] had a negative logarithm of the EC50 (pEC50) of 6.49.
Next, `CC(=O)N1CCC(c2ccc([C@@H](C/C(=N\O)c3ccc(=O)n(C)c3)c3ccccc3C)cc2)CC1` [Example 508, (R,E)-5-(3-(4-(1-Acetylpiperidin-4-yl)phenyl)-1-(hydroxyimino)-3-o-tolylpropyl)-1-methylpyridin-2(1H)-one]: 6.39; `Cc1cc(Cl)ccc1C(C/C(=N\O)c1ccc(=O)n(CC(N)=O)c1)c1ccc(S(C)(=O)=O)cc1` (stereo not drawn) [Example 343, (E)-2-(5-(3-(4-Chloro-2-methylphenyl)-1-(hydroxyimino)-3-(4-(methylsulfonyl)-phenyl)propyl)-2-oxopyridin-1(2H)-yl)acetamide]: 5.43; `Cc1cc(Cl)ccc1[C@H](C/C(=N\O)c1cc[n+]([O-])c(C)c1)c1ccc(Br)cc1` [Example 384, (R,E)-4-(3-(4-Bromophenyl)-3-(4-chloro-2-methylphenyl)-1-(hydroxyimino)propyl)-2-methylpyridine 1-oxide]: 6.77.
Next, `CCOc1ccc([C@@H](C/C(=N\O)c2ccnc(C)c2)c2ccccc2C)cc1` [Example 364, (R)-3-(4-Ethoxy-phenyl)-1-(2-methyl-pyridin-4-yl)-3-o-tolyl-propan-1-one oxime]: 8.40; `Cc1cc(/C(C[C@H](c2ccc(O)cc2)c2ccccc2C)=N/O)ccn1` [Example 363, (R)-3-(4-Hydroxy-phenyl)-1-(2-methyl-pyridin-4-yl)-3-o-tolyl-propan-1-one oxime]: 7.55; `Cc1cc(/C(C[C@H](c2ccc(-c3nnc(C)o3)cc2)c2ccccc2C)=N/O)ccn1` [Example 417, ((−), E)-3-[4-(5-Methyl-[1,3,4]oxadiazol-2-yl)-phenyl]-1-(2-methyl-pyridin-4-yl)-3-o-tolyl-propan-1-one oxime]: 8.10.
Next, `Cc1cc(/C(C[C@H](c2ccc(C3CCNCC3)cc2)c2ccc(Cl)cc2C)=N/O)ccn1` [Example 388, (R,E)-3-(4-chloro-2-methylphenyl)-1-(2-methylpyridin-4-yl)-3-(4-(piperidin-4-yl)phenyl)propan-1-one oxime]: 6.76; `Cc1cc(/C(CC(c2ccc(C(=O)NCCO)cc2)c2ccc(F)cc2F)=N/O)ccn1` (stereo not drawn) [Example 433, 4-[1-(2,4-Difluoro-phenyl)-3-[(E)-hydroxyimino]-3-(2-methyl-pyridin-4-yl)-propyl]-N-(2-hydroxy-ethyl)-benzamide]: 7.26.
Turning to `CC(=O)Nc1cccc(C(C/C(=N\O)c2ccc(=O)n(C)c2)c2ccc(Cl)cc2F)c1` (stereo not drawn) [Example 319, (E)-N-(3-(1-(4-Chloro-2-fluorophenyl)-3-(hydroxyimino)-3-(1-methyl-6-oxo-1,6-dihydropyridin-3-yl)propyl)phenyl)acetamide], the pEC50 was 5.60.
Consider `Cc1cc(/C(C[C@H](c2ccc(-c3cn(CC(=O)O)nn3)cc2)c2ccccc2C)=N/O)ccn1` (single isomer, unassigned) [Example 425, (4-{4-[(−)-3-[(E)-Hydroxyimino]-3-(2-methyl-pyridin-4-yl)-1-o-tolyl-propyl]-phenyl}-[1,2,3]triazol-1-yl)-acetic acid], for which the pEC50 is 7.85.
The same measure for `O/N=C(\CC(c1ccccc1)c1ccc(Br)cc1)c1cc(Cl)nc(Cl)c1` (stereo not drawn) [Example 47, (E)-3-(4-Bromo-phenyl)-1-(2,6-dichloro-pyridin-4-yl)-3-phenyl-propan-1-one oxime]: 6.26; for `Cc1cc(/C(CC(c2cccc(Br)c2)c2ccccc2C)=N/O)cc(F)n1` (stereo not drawn) [Example 122, (E)-3-(3-Bromo-phenyl)-1-(2-fluoro-6-methyl-pyridin-4-yl)-3-o-tolyl-propan-1-one oxime]: 6.70; for `Cc1cc(/C(CC(c2cccc(-c3ccc(C(=O)O)c(F)c3)c2)c2ccccc2C)=N/O)ccn1` (stereo not drawn) [Example 101, 3-Fluoro-3′-[3-[(E)-hydroxyimino]-3-(2-methyl-pyridin-4-yl)-1-o-tolyl-propyl]-biphenyl-4-carboxylic acid]: 5.77.
Next, `Cc1cc(/C(C[C@H](c2ccc(C3=CCNCC3)cc2)c2ccccc2C)=N/O)ccn1` [Example 375, (R,E)-1-(2-Methylpyridin-4-yl)-3-(4-(1,2,3,6-tetrahydropyridin-4-yl)phenyl)-3-o-tolylpropan-1-one oxime]: 7.12; `Cc1ccccc1C(C/C(=N\O)c1cc(F)ccc1F)c1ccc(Br)cc1` (stereo not drawn) [Example 52, (E)-3-(4-Bromo-phenyl)-1-(2,5-difluoro-phenyl)-3-o-tolyl-propan-1-one oxime]: 6.12; `Cc1cc(/C(C[C@H](c2ccc(-c3ccc(C(=O)O)cc3)cc2)c2ccc(F)cc2C)=N/O)ccn1` (single isomer, unassigned) [Example 397, (+)-4′-[1-(4-Fluoro-2-methyl-phenyl)-3-[(E)-hydroxyimino]-3-(2-methyl-pyridin-4-yl)-propyl]-biphenyl-4-carboxylic acid; compound with triethylamine 1:0.75]: 7.77.
Next, `Cc1ccccc1C(C/C(=N\O)c1ccc(=O)n(C)c1)c1ccc(Oc2ccc(C(=O)O)c(F)c2)cc1F` (stereo not drawn) [Example 222, 2-Fluoro-4-{3-fluoro-4-[3-[(E)-hydroxyimino]-3-(1-methyl-6-oxo-1,6-dihydro-pyridin-3-yl)-1-o-tolyl-propyl]-phenoxy}-benzoic acid]: 5.44.
Turning to `Cc1ccccc1[C@H](C/C(Cc1ccccn1)=N\O)c1ccc(Br)cc1` [Example 263, (E,R)-4-(4-bromophenyl)-1-(pyridin-2-yl)-4-o-tolylbutan-2-one oxime], the pEC50 is 5.49.
In the case of `Cc1cc(Cl)ccc1[C@H](C/C(=N\O)c1ccnc(CO)c1)c1ccc(Br)cc1` [Example 383, (R,E)-3-(4-Bromophenyl)-3-(4-chloro-2-methylphenyl)-1-(2-(hydroxymethyl)pyridin-4-yl)propan-1-one oxime], the pEC50 was 6.49.
For `Cc1ccccc1C(C/C(=N\O)c1ccc(=O)n(C)c1)c1ccc(C(=O)N(C)CCO)cc1` (stereo not drawn) [Example 209, N-(2-Hydroxy-ethyl)-4-[3-[(E)-hydroxyimino]-3-(1-methyl-6-oxo-1,6-dihydro-pyridin-3-yl)-1-o-tolyl-propyl]-N-methyl-benzamide], the pEC50 was 6.35.
Next, `Cc1cc(/C(C[C@H](c2ccc(-c3nnc(C4CC4)o3)cc2)c2ccccc2C)=N/O)ccn1` [Example 418, ((−), E)-3-(4-(5-Cyclopropyl-1,3,4-oxadiazol-2-yl)phenyl)-1-(2-methylpyridin-4-yl)-3-o-tolylpropan-1-one oxime]: 8.40.
Next, `Cc1cc(F)ccc1[C@@H](C/C(=N\O)c1ccc(=O)n(C)c1)c1ccc(Br)cc1` (single isomer, unassigned) [Example 405, (+)-5-{3-(4-Bromo-phenyl)-3-(4-fluoro-2-methyl-phenyl)-1-[(E)-hydroxyimino]-propyl}-1-methyl-1H-pyridin-2-one]: 8.10.

A word on the pEC50: it is the EC50 on a negative log10 scale, so that one unit is a factor of ten. High values mean a low EC50, low ones a high EC50.
